In ChEMBL document CHEMBL3044763, “Inhibitory Activities of Rhodanine Derivatives on Plant Growth” (Biosci Biotechnol Biochem, 1996):

Experiments:
[1] = test system: Brassica rapa subsp. oleifera; test: Growth inhibition of Brassica rapa subsp. oleifera assessed as total chlorophyll level at 3 x 10^-4 M after 7 days; format: functional; design: scale not given: the % may be the effect or the level left
[2] = test system: Brassica rapa subsp. oleifera; test: Growth inhibition of Brassica rapa subsp. oleifera assessed as total chlorophyll level at 3 x 10^-5 M after 7 days; format: functional; design: scale not given: the % may be the effect or the level left
[3] = Toxicity in Mus musculus ddY (mouse) assessed as mortality at 400 mg/kg, ip after 5 days; format: organism-based; design: dose 400 mg/kg, route intraperitoneal; conditions: in vivo
[4] = Toxicity in Mus musculus ddY (mouse) assessed as mortality at 450 mg/kg, ip after 1 day; format: organism-based; design: dose 450 mg/kg, route intraperitoneal; conditions: in vivo
[5] = Toxicity in Mus musculus ddY (mouse) assessed as mortality at 650 mg/kg, ip after 6 days; format: organism-based; design: dose 650 mg/kg, route intraperitoneal; conditions: in vivo
[6] = Toxicity in Mus musculus ddY (mouse) assessed as mortality at 400 mg/kg, ip after 2 days; format: organism-based; design: dose 400 mg/kg, route intraperitoneal; conditions: in vivo
[7] = Toxicity in Mus musculus ddY (mouse) assessed as mortality at 650 mg/kg, ip after 3 days; format: organism-based; design: dose 650 mg/kg, route intraperitoneal; conditions: in vivo
[8] = Toxicity in ip dosed Mus musculus ddY (mouse) assessed as mortality after 1 to 7 days; format: organism-based; conditions: in vivo
[9] = Toxicity in Mus musculus ddY (mouse) assessed as mortality at 500 mg/kg, ip after 2 days; format: organism-based; design: dose 500 mg/kg, route intraperitoneal; conditions: in vivo
[10] = Toxicity in Mus musculus ddY (mouse) assessed as mortality at 650 mg/kg, ip after 2 days; format: organism-based; design: dose 650 mg/kg, route intraperitoneal; conditions: in vivo
[11] = Toxicity in Mus musculus ddY (mouse) assessed as mortality at 450 mg/kg, ip after 2 days; format: organism-based; design: dose 450 mg/kg, route intraperitoneal; conditions: in vivo
[12] = Toxicity in Mus musculus ddY (mouse) assessed as mortality at 400 mg/kg, ip after 1 day; format: organism-based; design: dose 400 mg/kg, route intraperitoneal; conditions: in vivo
[13] = Toxicity in Mus musculus ddY (mouse) assessed as mortality at 450 mg/kg, ip after 4 days; format: organism-based; design: dose 450 mg/kg, route intraperitoneal; conditions: in vivo
[14] = Toxicity in Mus musculus ddY (mouse) assessed as mortality at 500 mg/kg, ip after 6 days; format: organism-based; design: dose 500 mg/kg, route intraperitoneal; conditions: in vivo
[15] = Toxicity in Mus musculus ddY (mouse) assessed as mortality at 650 mg/kg, ip after 4 days; format: organism-based; design: dose 650 mg/kg, route intraperitoneal; conditions: in vivo
[16] = test system: Brassica rapa subsp. oleifera; test: Growth inhibition of Brassica rapa subsp. oleifera assessed as chlorophyll a level at 5 x 10^-5 M after 7 days; format: functional; design: scale not given: the % may be the effect or the level left
[17] = Toxicity in Mus musculus ddY (mouse) assessed as mortality at 550 mg/kg, ip after 2 days; format: organism-based; design: dose 550 mg/kg, route intraperitoneal; conditions: in vivo
[18] = Toxicity in Mus musculus ddY (mouse) assessed as mortality at 400 mg/kg, ip after 6 days; format: organism-based; design: dose 400 mg/kg, route intraperitoneal; conditions: in vivo
[19] = Toxicity in Mus musculus ddY (mouse) assessed as mortality at 400 mg/kg, ip after 4 days; format: organism-based; design: dose 400 mg/kg, route intraperitoneal; conditions: in vivo
[20] = Toxicity in Mus musculus ddY (mouse) assessed as mortality at 600 mg/kg, ip after 6 days; format: organism-based; design: dose 600 mg/kg, route intraperitoneal; conditions: in vivo
[21] = test system: Brassica rapa subsp. oleifera; test: Growth inhibition of Brassica rapa subsp. oleifera assessed as root growth at 3 x 10^-4 M after 7 days; format: functional
[22] = Toxicity in Mus musculus ddY (mouse) assessed as mortality at 600 mg/kg, ip after 3 days; format: organism-based; design: dose 600 mg/kg, route intraperitoneal; conditions: in vivo
[23] = Toxicity in Mus musculus ddY (mouse) assessed as mortality at 550 mg/kg, ip after 7 days; format: organism-based; design: dose 550 mg/kg, route intraperitoneal; conditions: in vivo
[24] = Toxicity in Mus musculus ddY (mouse) assessed as mortality at 600 mg/kg, ip after 5 days; format: organism-based; design: dose 600 mg/kg, route intraperitoneal; conditions: in vivo
[25] = Toxicity in Mus musculus ddY (mouse) assessed as mortality at 600 mg/kg, ip after 1 day; format: organism-based; design: dose 600 mg/kg, route intraperitoneal; conditions: in vivo
[26] = Toxicity in Mus musculus ddY (mouse) assessed as mortality at 450 mg/kg, ip after 5 days; format: organism-based; design: dose 450 mg/kg, route intraperitoneal; conditions: in vivo
[27] = test system: Brassica rapa subsp. oleifera; test: Growth inhibition of Brassica rapa subsp. oleifera assessed as root growth at 3 x 10^-5 M after 7 days; format: functional
[28] = test system: Brassica rapa subsp. oleifera; test: Growth inhibition of Brassica rapa subsp. oleifera assessed as chlorophyll a level at 3 x 10^-4 M after 7 days; format: functional; design: scale not given: the % may be the effect or the level left
[29] = Toxicity in Mus musculus ddY (mouse) assessed as mortality at 450 mg/kg, ip after 7 days; format: organism-based; design: dose 450 mg/kg, route intraperitoneal; conditions: in vivo
[30] = Toxicity in Mus musculus ddY (mouse) assessed as mortality at 600 mg/kg, ip after 4 days; format: organism-based; design: dose 600 mg/kg, route intraperitoneal; conditions: in vivo
[31] = Toxicity in Mus musculus ddY (mouse) assessed as mortality at 650 mg/kg, ip after 1 day; format: organism-based; design: dose 650 mg/kg, route intraperitoneal; conditions: in vivo
[32] = Toxicity in Mus musculus ddY (mouse) assessed as mortality at 500 mg/kg, ip after 7 days; format: organism-based; design: dose 500 mg/kg, route intraperitoneal; conditions: in vivo
[33] = test system: Brassica rapa subsp. oleifera; test: Growth inhibition of Brassica rapa subsp. oleifera assessed as chlorophyll b level at 1 x 10^-4 M after 7 days; format: functional; design: scale not given: the % may be the effect or the level left
[34] = Toxicity in Mus musculus ddY (mouse) assessed as mortality at 400 mg/kg, ip after 3 days; format: organism-based; design: dose 400 mg/kg, route intraperitoneal; conditions: in vivo
[35] = Toxicity in Mus musculus ddY (mouse) assessed as mortality at 650 mg/kg, ip after 7 days; format: organism-based; design: dose 650 mg/kg, route intraperitoneal; conditions: in vivo
[36] = test system: Brassica rapa subsp. oleifera; test: Growth inhibition of Brassica rapa subsp. oleifera assessed as chlorophyll b level at 3 x 10^-4 M after 7 days; format: functional; design: scale not given: the % may be the effect or the level left
[37] = Toxicity in Mus musculus ddY (mouse) assessed as mortality at 600 mg/kg, ip after 2 days; format: organism-based; design: dose 600 mg/kg, route intraperitoneal; conditions: in vivo
[38] = Toxicity in Mus musculus ddY (mouse) assessed as mortality at 550 mg/kg, ip after 4 days; format: organism-based; design: dose 550 mg/kg, route intraperitoneal; conditions: in vivo
[39] = test system: Brassica rapa subsp. oleifera; test: Growth inhibition of Brassica rapa subsp. oleifera assessed as root growth at 5 x 10^-5 M after 7 days; format: functional
[40] = Toxicity in Mus musculus ddY (mouse) assessed as mortality at 550 mg/kg, ip after 3 days; format: organism-based; design: dose 550 mg/kg, route intraperitoneal; conditions: in vivo
[41] = test system: Brassica rapa subsp. oleifera; test: Growth inhibition of Brassica rapa subsp. oleifera assessed as chlorophyll a level at 1 x 10^-4 M after 7 days; format: functional; design: scale not given: the % may be the effect or the level left
[42] = Toxicity in Mus musculus ddY (mouse) assessed as mortality at 500 mg/kg, ip after 3 days; format: organism-based; design: dose 500 mg/kg, route intraperitoneal; conditions: in vivo
[43] = test system: Brassica rapa subsp. oleifera; test: Growth inhibition of Brassica rapa subsp. oleifera assessed as chlorophyll b level at 5 x 10^-5 M after 7 days; format: functional; design: scale not given: the % may be the effect or the level left
[44] = Toxicity in Mus musculus ddY (mouse) assessed as mortality at 600 mg/kg, ip after 7 days; format: organism-based; design: dose 600 mg/kg, route intraperitoneal; conditions: in vivo
[45] = Toxicity in Mus musculus ddY (mouse) assessed as mortality at 500 mg/kg, ip after 4 days; format: organism-based; design: dose 500 mg/kg, route intraperitoneal; conditions: in vivo
[46] = test system: Brassica rapa subsp. oleifera; test: Growth inhibition of Brassica rapa subsp. oleifera assessed as total chlorophyll level at 1 x 10^-4 M after 7 days; format: functional; design: scale not given: the % may be the effect or the level left
[47] = Toxicity in Mus musculus ddY (mouse) assessed as mortality at 500 mg/kg, ip after 5 days; format: organism-based; design: dose 500 mg/kg, route intraperitoneal; conditions: in vivo
[48] = Toxicity in Mus musculus ddY (mouse) assessed as mortality at 550 mg/kg, ip after 5 days; format: organism-based; design: dose 550 mg/kg, route intraperitoneal; conditions: in vivo
[49] = test system: Brassica rapa subsp. oleifera; test: Growth inhibition of Brassica rapa subsp. oleifera assessed as chlorophyll a level at 3 x 10^-5 M after 7 days; format: functional; design: scale not given: the % may be the effect or the level left
[50] = Toxicity in Mus musculus ddY (mouse) assessed as mortality at 550 mg/kg, ip after 1 day; format: organism-based; design: dose 550 mg/kg, route intraperitoneal; conditions: in vivo
[51] = Toxicity in Mus musculus ddY (mouse) assessed as mortality at 650 mg/kg, ip after 5 days; format: organism-based; design: dose 650 mg/kg, route intraperitoneal; conditions: in vivo
[52] = Toxicity in Mus musculus ddY (mouse) assessed as mortality at 550 mg/kg, ip after 6 days; format: organism-based; design: dose 550 mg/kg, route intraperitoneal; conditions: in vivo
[53] = Toxicity in Mus musculus ddY (mouse) assessed as mortality at 500 mg/kg, ip after 1 day; format: organism-based; design: dose 500 mg/kg, route intraperitoneal; conditions: in vivo
[54] = Toxicity in Mus musculus ddY (mouse) assessed as mortality at 450 mg/kg, ip after 6 days; format: organism-based; design: dose 450 mg/kg, route intraperitoneal; conditions: in vivo
[55] = test system: Brassica rapa subsp. oleifera; test: Growth inhibition of Brassica rapa subsp. oleifera assessed as root growth at 1 x 10^-4 M after 7 days; format: functional
[56] = test system: Brassica rapa subsp. oleifera; test: Growth inhibition of Brassica rapa subsp. oleifera assessed as total chlorophyll level at 5 x 10^-5 M after 7 days; format: functional; design: scale not given: the % may be the effect or the level left
[57] = Toxicity in Mus musculus ddY (mouse) assessed as mortality at 450 mg/kg, ip after 3 days; format: organism-based; design: dose 450 mg/kg, route intraperitoneal; conditions: in vivo
[58] = Toxicity in Mus musculus ddY (mouse) assessed as mortality at 400 mg/kg, ip after 7 days; format: organism-based; design: dose 400 mg/kg, route intraperitoneal; conditions: in vivo
[59] = test system: Brassica rapa subsp. oleifera; test: Growth inhibition of Brassica rapa subsp. oleifera assessed as chlorophyll b level at 3 x 10^-5 M after 7 days; format: functional; design: scale not given: the % may be the effect or the level left

O=C(O)CN1C(=O)CSC1=S [RHODANINE-3-ACETIC ACID]
Activity [1]: 13.99% | Activity [2]: 25.06% | mortality at 120 h [3]: 0% | mortality at 24 h [4]: 0% | mortality at 144 h [5]: 100% | mortality at 48 h [6]: 0% | mortality at 72 h [7]: 100% | LD50 [8]: 510 mg/kg | mortality at 48 h [9]: 20% | mortality at 48 h [10]: 100% | mortality at 48 h [11]: 0% | mortality at 24 h [12]: 0% | mortality at 96 h [13]: 20% | mortality at 144 h [14]: 40% | mortality at 96 h [15]: 100% | Activity [16]: 17.08% | mortality at 48 h [17]: 0% | mortality at 144 h [18]: 0% | mortality at 96 h [19]: 0% | mortality at 144 h [20]: 80% | Activity [21]: 18.3 mm | mortality at 72 h [22]: 60% | mortality at 168 h [23]: 80% | mortality at 120 h [24]: 80% | mortality at 24 h [25]: 20% | mortality at 120 h [26]: 20% | Root length [27]: 57 mm | Activity [28]: 10.17% | mortality at 168 h [29]: 20% | mortality at 96 h [30]: 80% | mortality at 24 h [31]: 20% | mortality at 168 h [32]: 40% | Activity [33]: 5.48% | mortality at 72 h [34]: 0% | mortality at 168 h [35]: 100% | Activity [36]: 3.76% | mortality at 48 h [37]: 60% | mortality at 96 h [38]: 80% | Root length [39]: 57.1 mm | mortality at 72 h [40]: 40% | Activity [41]: 14.1% | mortality at 72 h [42]: 20% | Activity [43]: 7.35% | mortality at 168 h [44]: 80% | mortality at 96 h [45]: 20% | Activity [46]: 19.57% | mortality at 120 h [47]: 20% | mortality at 120 h [48]: 80% | Activity [49]: 18.01% | mortality at 24 h [50]: 0% | mortality at 120 h [51]: 100% | mortality at 144 h [52]: 80% | mortality at 24 h [53]: 0% | mortality at 144 h [54]: 20% | Activity [55]: 39.8 mm | Activity [56]: 24.42% | mortality at 72 h [57]: 0% | mortality at 168 h [58]: 0% | Activity [59]: 7.05%
